Reference: PubChem BioAssay (NCI)
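Results reflect a 48-hour exposure of cells in 96-well plates to compound at five concentrations. TGI denotes the concentration required for complete inhibition of growth.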

Columns and labels:
Experiment in all cases: NCI anticancer screen, dose series, 48 h
HCT-15 colon = test system: HCT-15 colon
SK-OV-3 ovarian = test system: SK-OV-3 ovarian
UACC-62 melanoma = test system: UACC-62 melanoma
SW-620 colon = test system: SW-620 colon
OVCAR-4 ovarian = test system: OVCAR-4 ovarian
HCC-2998 colon = test system: HCC-2998 colon
IGROV1 ovarian = test system: IGROV1 ovarian
SK-MEL-2 melanoma = test system: SK-MEL-2 melanoma
OVCAR-8 ovarian = test system: OVCAR-8 ovarian
HT29 colon = test system: HT29 colon
UO-31 renal = test system: UO-31 renal
CAKI-1 renal = test system: CAKI-1 renal
MDA-MB-231 breast = test system: MDA-MB-231 breast
NCI/ADR-RES ovarian = test system: NCI/ADR-RES ovarian
U251 CNS = test system: U251 CNS
HOP-92 NSCLC = test system: HOP-92 NSCLC
SK-MEL-5 melanoma = test system: SK-MEL-5 melanoma
786-0 renal = test system: 786-0 renal
A549 NSCLC = test system: A549 NSCLC
BT-549 breast = test system: BT-549 breast
HL-60(TB) leukemia = test system: HL-60(TB) leukemia
PC-3 prostate = test system: PC-3 prostate
RPMI-8226 leukemia = test system: RPMI-8226 leukemia
EKVX NSCLC = test system: EKVX NSCLC
LOX IMVI melanoma = test system: LOX IMVI melanoma
TK-10 renal = test system: TK-10 renal
T-47D breast = test system: T-47D breast
MDA-MB-435 = test system: MDA-MB-435
HS 578T breast = test system: HS 578T breast
SF-268 CNS = test system: SF-268 CNS
OVCAR-3 ovarian = test system: OVCAR-3 ovarian
SF-295 CNS = test system: SF-295 CNS
SK-MEL-28 melanoma = test system: SK-MEL-28 melanoma
SNB-75 CNS = test system: SNB-75 CNS
MDA-N = test system: MDA-N
DU-145 prostate = test system: DU-145 prostate
MOLT-4 leukemia = test system: MOLT-4 leukemia
COLO 205 colon = test system: COLO 205 colon
ACHN renal = test system: ACHN renal
HOP-62 NSCLC = test system: HOP-62 NSCLC
SF-539 CNS = test system: SF-539 CNS
K-562 leukemia = test system: K-562 leukemia
NCI-H23 lung = test system: NCI-H23 lung
MCF7 breast = test system: MCF7 breast
M14 melanoma = test system: M14 melanoma
KM12 colon = test system: KM12 colon
UACC-257 melanoma = test system: UACC-257 melanoma
MALME-3M melanoma = test system: MALME-3M melanoma
OVCAR-5 ovarian = test system: OVCAR-5 ovarian
NCI-H522 lung = test system: NCI-H522 lung
HCT-116 colon = test system: HCT-116 colon
CCRF-CEM leukemia = test system: CCRF-CEM leukemia
SR leukemia = test system: SR leukemia
SN12C renal = test system: SN12C renal
NCI-H226 lung = test system: NCI-H226 lung
NCI-H460 lung = test system: NCI-H460 lung
SNB-19 CNS = test system: SNB-19 CNS
RXF 393 renal = test system: RXF 393 renal

Structure (SMILES): Cc1cc(C)nc(NS(=O)(=O)c2ccc(NNC(=O)c3cccc4c(=O)c5ccccc5[nH]c34)cc2)n1
- TGI (HCT-15 colon): > 100 µM
- TGI (SK-OV-3 ovarian): > 100 µM
- TGI (UACC-62 melanoma): > 100 µM
- TGI (SW-620 colon): > 100 µM
- TGI (OVCAR-4 ovarian): > 100 µM
- TGI (HCC-2998 colon): > 100 µM
- TGI (IGROV1 ovarian): > 100 µM
- TGI (SK-MEL-2 melanoma): 76.5 µM
- TGI (OVCAR-8 ovarian): > 100 µM
- TGI (HT29 colon): > 100 µM
- TGI (UO-31 renal): > 100 µM
- TGI (CAKI-1 renal): > 100 µM
- TGI (MDA-MB-231 breast): > 100 µM
- TGI (NCI/ADR-RES ovarian): > 100 µM
- TGI (U251 CNS): > 100 µM
- TGI (HOP-92 NSCLC): 73.8 µM
- TGI (SK-MEL-5 melanoma): > 100 µM
- TGI (786-0 renal): > 100 µM
- TGI (A549 NSCLC): > 100 µM
- TGI (BT-549 breast): > 100 µM
- TGI (HL-60(TB) leukemia): > 100 µM
- TGI (PC-3 prostate): > 100 µM
- TGI (RPMI-8226 leukemia): > 100 µM
- TGI (EKVX NSCLC): 98.9 µM
- TGI (LOX IMVI melanoma): > 100 µM
- TGI (TK-10 renal): > 100 µM
- TGI (T-47D breast): > 100 µM
- TGI (MDA-MB-435): > 100 µM
- TGI (HS 578T breast): > 100 µM
- TGI (SF-268 CNS): > 100 µM
- TGI (OVCAR-3 ovarian): > 100 µM
- TGI (SF-295 CNS): > 100 µM
- TGI (SK-MEL-28 melanoma): 82.8 µM
- TGI (SNB-75 CNS): 77.7 µM
- TGI (MDA-N): > 100 µM
- TGI (DU-145 prostate): > 100 µM
- TGI (MOLT-4 leukemia): > 100 µM
- TGI (COLO 205 colon): > 100 µM
- TGI (ACHN renal): > 100 µM
- TGI (HOP-62 NSCLC): > 100 µM
- TGI (SF-539 CNS): > 100 µM
- TGI (K-562 leukemia): > 100 µM
- TGI (NCI-H23 lung): > 100 µM
- TGI (MCF7 breast): > 100 µM
- TGI (M14 melanoma): > 100 µM
- TGI (KM12 colon): > 100 µM
- TGI (UACC-257 melanoma): > 100 µM
- TGI (MALME-3M melanoma): > 100 µM
- TGI (OVCAR-5 ovarian): > 100 µM
- TGI (NCI-H522 lung): > 100 µM
- TGI (HCT-116 colon): > 100 µM
- TGI (CCRF-CEM leukemia): > 100 µM
- TGI (SR leukemia): > 100 µM
- TGI (SN12C renal): > 100 µM
- TGI (NCI-H226 lung): > 100 µM
- TGI (NCI-H460 lung): > 100 µM
- TGI (SNB-19 CNS): > 100 µM
- TGI (RXF 393 renal): > 100 µM
